Test results as given in patent US20070293666A1, “Optical Filter and Its Applications, and Porphyrin Compound Used in Optical Filter” (Mitsui Chemicals, Inc., priority 2004, published 2007).

Tests used:
Format in all cases: physicochemical
[1] = Absorption spectrum in chloroform (maximum absorption wavelength, gram absorption coefficient, 550/525 nm coefficient ratio); settings: for εg (gram absorption coefficient) / λmax: chloroform solution; for Ratio of Absorption Coefficient at 525 nm and 550 nm: coefficient at 550 nm to coefficient at 525 nm
Experimental: (§1) Compounds represented by the compound Nos. 1-1, 1-2, 1-3, 1-4 and 1-7 (Table 1-1) were synthesized in the same manner as in Examples 1-1 and 1-2. With respect to compounds synthesized in Example 1-2 and Synthesis Example 1-1 along with these compounds, the maximum absorption wavelength (λmax), the gram absorption coefficient (εg) and solubility were measured.
(§2) λmax and εg are values in the chloroform solution, while the solubility is weight % based on acetone.
With respect to the compounds represented by the compound Nos. 1-2, 1-3, 1-6 and 1-7 synthesized in Examples 1-2 and 1-3 (corresponding to compounds (3-B), (3-C), (3-E) and (3-F) respectively) along with the obtained compound (3-A), the maximum absorption wavelength and the ratio of the absorption coefficient at a wavelength of 550 nm to the absorption coefficient at a wavelength of 525 nm, which were measured in a chloroform solvent, are shown in Table 3-1. [drawing 26] [drawing 27] [drawing 28] [drawing 29]

Solubility in acetone = test: Solubility in acetone; design: key: ∘: completely dissolved; x: not completely dissolved; settings: for Solubility 0.1%: 0.1 weight % based on acetone; for Solubility 0.2%: 0.2 weight % based on acetone; for Solubility 1.0%: 1.0 weight % based on acetone
Experimental: as §1, §2

[2] = Light transmittance of optical filter (dye-containing acrylic adhesive sheet, 1000 ppm dye); settings: dye 1000 (wt)ppm in acrylic adhesive, 25 μm
Experimental: When the compound (3-A) was dispersed and dissolved in a solvent of ethyl acetate and toluene (weight ratio 50:50) and dried, a dye-containing diluting agent for an acrylic adhesive was prepared such that the dye concentration in the resin was 1000 (wt)ppm. Subsequently, the acrylic adhesive (a copolymer of butyl acrylate and acrylic acid (Product name: DBBOND, manufactured by Diabond Industry Co., Ltd.)) and a dye-containing diluting agent were mixed (weight ratio 80:20), and continuously applied on a mold releasing layer of a mold releasing film comprising a polyethylene terephthalate film and a silicone mold releasing layer according to a bar coating method, and the resulting material was dried. Then, the other mold releasing film was attached to the coating surface to prepare a dye-containing adhesive sheet having a thickness of 25 μm with mold releasing films having different mold releasing forces at both sides.
The mold releasing film on one side of the prepared adhesive sheet was peeled away and the resulting sheet was attached to a transparent acrylic resin (manufactured by Mitsubishi Rayon Co., Ltd., Acrylite, thickness: 2 mm), while the mold releasing film on the other side thereof was further peeled away and an ultraviolet blocking film (manufactured by Teijin Co., Ltd., HB Film, thickness: 75 μm) was attached to prepare an optical filter.
With respect to the obtained optical filter, the light transmittance in a wavelength of from 300 to 800 nm was measured by using a spectrophotometer (Product name: U-3400, manufactured by Hitachi, Ltd.) in accordance with JIS R3106. A percentage of light transmittance at a wavelength of 550 nm to light transmittance at a wavelength of 525 nm was obtained.

[3] = Light resistance test / artificial sunlight irradiation test of optical filter; settings: visible light 380 to 780 nm, 50 mW/cm^2, 250 hours, 30±10° C., humidity 50±20%
Experimental: To evaluate light resistance of the dye, a sample prepared in the same method as in evaluation of heat resistance is used. The absorption retention rate represented by the above equation (1) is measured in the same manner as in heat resistance. However, in this case, the obtained sample is not kept under the environment of 80° C., but the above visible light ray is irradiated on a side of the ultraviolet blocking film of the sample in a room at a temperature of 30±10° C., a humidity of 50±20% for a predetermined time. Tmax,1 represents light transmittance in a maximum absorption wavelength after the above visible light ray is irradiated for a predetermined time. When there are a plurality of absorption maxima, Tmax,0 is light transmittance at a maximum absorption wavelength showing the highest absorption coefficient. Tmax,1 represents light transmittance at the same wavelength as that in Tmax,0 or at a maximum absorption wavelength nearest to the wavelength in Tmax,0.
With respect to the optical filters obtained from the compounds (3-A) to (3-F), environmental accelerated tests were carried out by artificial sunlight irradiation using a solar simulator (manufactured by Ushio Inc.). A visible light ray in a wavelength of from 380 to 780 nm was irradiated on the ultraviolet blocking film of the prepared optical filter at 50 mW/cm^2 for 250 hours in a room at a temperature of 30±10° C. and a humidity of 50±20%. At this time, an absorption retention rate represented by the above equation (1) was obtained.
With respect to the optical filters obtained from the compounds (3-A) and (3-B), environmental accelerated tests of high temperature, high-temperature/high-humidity and artificial sunlight irradiation were carried out. In the test, a constant temperature chamber at 80° C. (DN-61, manufactured by Yamato Scientific Co., Ltd.), a constant temperature and humidity chamber at 60° C. and 90% RH (Product name, FX2200, manufactured by Kusumoto Chemicals, Ltd.) and a solar simulator (manufactured by Ushio Inc.) were respectively used. A visible light ray in a wavelength of from 380 to 780 nm was irradiated on a surface of the ultraviolet blocking film of the above optical filter at 50 mW/cm^2 for a predetermined time in a room at a temperature of 30±10° C. and a humidity of 50±20%.
The above optical filters were kept under each environmental condition for 500 hours and 1000 hours, and light transmittance of the optical filter was measured by using the spectrophotometer after 500 hours and 1000 hours. An absorption retention rate in a maximum absorption wavelength after each environmental accelerated test was obtained from the above equation (2).

Compound	εg (gram absorption coefficient) [1]	λmax [1]	Solubility 0.1% (Solubility in acetone)	Solubility 0.2% (Solubility in acetone)	Solubility 1.0% (Solubility in acetone)	Maximum Absorption Wavelength ([1]; chloroform solvent)	Ratio of Absorption Coefficient at 525 nm and 550 nm ([1]; chloroform solvent)	Light Transmittance at 525 nm [2]	Light Transmittance at 550 nm [2]	T@550/T@525 Light Transmittance Ratio [2]	Absorption Retention after Light resistance test for 250 hours [3]	Maximum Absorption Wavelength ([1]; in chloroform)	gram absorption coefficient ([1]; in chloroform)
CCCCOc1ccc(C2=c3nc(c4c5cccc6cccc(c3=4)c65)C(c3ccc(OCCCC)cc3)=c3c4c(c5[n]3[Cu][n]3c2c2c(c3C(c3ccc(OCCCC)cc3)=c3nc(c6c7cccc8cccc(c3=6)c87)C=5c3ccc(OCCCC)cc3)-c3cccc5cccc-2c35)-c2cccc3cccc-4c23)cc1 [1-1]	162,000	553 nm	∘	∘	x	–	–	–	–	–	–	–	–
CCCCCCOc1ccc(C2=c3nc(c4c5cccc6cccc(c3=4)c65)C(c3ccc(OCCCCCC)cc3)=c3c4c(c5[n]3[Cu][n]3c2c2c(c3C(c3ccc(OCCCCCC)cc3)=c3nc(c6c7cccc8cccc(c3=6)c87)C=5c3ccc(OCCCCCC)cc3)-c3cccc5cccc-2c35)-c2cccc3cccc-4c23)cc1 [1-3]	122,000	553 nm	∘	∘	∘	553 nm	2.3	69.1%	49.8%	72%	80%	–	–
CCCCCCCCCCOc1ccc(C2=c3nc(c4c5cccc6cccc(c3=4)c65)C(c3ccc(OCCCCCCCCCC)cc3)=c3c4c(c5[n]3[Ni][n]3c2c2c(c3C(c3ccc(OCCCCCCCCCC)cc3)=c3nc(c6c7cccc8cccc(c3=6)c87)C=5c3ccc(OCCCCCCCCCC)cc3)-c3cccc5cccc-2c35)-c2cccc3cccc-4c23)cc1 [1-6]	135,000	536 nm	∘	∘	∘	536 nm	1.2	61.7%	57.5%	93%	97%	536 nm	135,000
CC(C)(C)c1ccc(C2=c3nc(c4c5cccc6cccc(c3=4)c65)C(c3ccc(C(C)(C)C)cc3)=c3c4c(c5[n]3[Cu][n]3c2c2c(c3C(c3ccc(C(C)(C)C)cc3)=c3nc(c6c7cccc8cccc(c3=6)c87)C=5c3ccc(C(C)(C)C)cc3)-c3cccc5cccc-2c35)-c2cccc3cccc-4c23)cc1 [3-D]	–	–	–	–	–	546 nm	2.2	59.7%	38.1%	64%	92%	–	–
c1coc(-c2c3nc(c(-c4ccco4)c4[nH]c(c(-c5ccco5)c5nc(c(-c6ccco6)c6[nH]c2c2c7cccc8cccc(c87)c62)c2c6cccc7cccc(c76)c52)c2c5cccc6cccc(c65)c42)c2c4cccc5cccc(c54)c32)c1 [2-A]	–	–	–	–	–	–	–	–	–	–	–	563 nm	110,000
CCCCCCCCCCOc1ccc(C2=c3nc(c4c5ccc(Cl)c6c(Cl)ccc(c3=4)c65)C(c3ccc(OCCCCCCCCCC)cc3)=c3c4c(c5[n]3[Ni][n]3c2c2c(c3C(c3ccc(OCCCCCCCCCC)cc3)=c3nc(c6c7ccc(Cl)c8c(Cl)ccc(c3=6)c87)C=5c3ccc(OCCCCCCCCCC)cc3)-c3ccc(Cl)c5c(Cl)ccc-2c35)-c2ccc(Cl)c3c(Cl)ccc-4c23)cc1 [1-7]	122,000	552 nm	∘	∘	∘	552 nm	1.4	72.0%	66.6%	93%	94%	–	–
CCCCCCCCCCOc1ccc(-c2c3nc(c(-c4ccc(OCCCCCCCCCC)cc4)c4[nH]c(c(-c5ccc(OCCCCCCCCCC)cc5)c5nc(c(-c6ccc(OCCCCCCCCCC)cc6)c6[nH]c2c2c7cccc8cccc(c87)c62)c2c6cccc7cccc(c76)c52)c2c5cccc6cccc(c65)c42)c2c4cccc5cccc(c54)c32)cc1 [1-A]	–	–	–	–	–	–	–	–	–	–	–	567 nm	113,000
